{"source": "patent US4686215A", "about": "“Pharmaceutical composition and method for treating tumors susceptible to 2-carbamoylaziridine” (priority 1976, dated 1987)", "key": {"[1]": {"conditions": "prior art compound; cited from earlier work"}, "[2]": {"tested_on": "carcinosarcoma DS", "conditions": "known drugs, prior art; cited from earlier work"}, "[3]": {"experiment": "toxicity (LD50)", "assay_type": "in vivo", "conditions": "compared with prior art"}, "[4]": {"tested_on": "SA-45", "experiment": "action in rats with SA-45 at late stages of tumor development (17 days after implantation)", "assay_type": "in vivo, rat", "conditions": "group II; 10 animals; i.v. 1500 mg/kg, 17 days after tumor implantation", "protocol": "(§1) Non-linear male rats with the starting weight 120-150 g were used in the experiments described hereinunder in Examples 1-4. All the animals were administered intravenously a single dose of the pharmaceutical composition in the form of the concentrated solution (10-30%) of the active principle in distilled water at a rate of 1500 mg/kg. The animals were decapitated on the 20th say from the day of the administration. All the animals received the usual laboratory ration.\nThe action of the pharmaceutical composition consisting of 30% solution of the active principle above formula where R is NH2, in distilled water was tested in rats with SA-45 at late stages of tumor development. The composition was administered 17 days after tumor implantation. The results of the experiment are presented in Table 4 where I--control animals, II--rats which were administered the pharmaceutical composition."}, "[5]": {"tested_on": "implanted SA-45", "experiment": "action in rats with implanted SA-45 at early stages of tumor development (48 hours after implantation)", "assay_type": "in vivo, rat", "conditions": "group II; 10 animals; i.v. 1500 mg/kg, 48 hours after tumor implantation", "protocol": "as §1\nThe action of the same pharmaceutical composition as in Example 1 was tested in rats with implanted SA-45 at early stages of tumor development. The pharmaceutical composition was administered 48 hours after tumor implantation. The results of the experiment are presented in Table 3, where I--control group, II--rats which were administered pharmaceutical composition."}, "[6]": {"tested_on": "implanted mammary gland cancer (RMGC-1)", "experiment": "action on tumor growth in rats with implanted mammary gland cancer RMGC-1, early stage (24 hours after implantation)", "assay_type": "in vivo, rat", "conditions": "10 animals", "protocol": "as §1\nThe action of the pharmaceutical composition consisting of 30% solution of the active principle of the above formula where R is NHNH2, in distilled water on tumor growth was tested in rats with implanted mammary gland cancer (RMGC-1). The results of the experiments are presented in Table 1, where I--control animals, II--rats which were administered the pharmaceutical composition, III--rats which were administered the same composition against the background of 90 minutes' hyperglycemia. The animals of groups II and III were administered the composition 24 hours after tumor implantation."}, "[7]": {"tested_on": "implanted RMCC-1", "experiment": "action in rats with implanted RMCC-1 at late stage of tumor development (15 days after implantation)", "assay_type": "in vivo, rat", "conditions": "group II, i.v. 1500 mg/kg", "protocol": "as §1\nThe action of the same pharmaceutical composition as in Example 1 was tested in rats with implanted RMCC-1 at late stage of tumor development. The pharmaceutical composition was administered 15 days after tumor implanatation, the average weight of the tumor being 35 g. The groups of the animals are designated as in Example 1. None of the controls survived till the day of decapitation (the 20th day after the administration of the pharmaceutical composition to group II)."}, "[8]": {"conditions": "group II, single i.v. dose 1500 mg/kg, 24 hours after tumor implantation, 20th day"}, "[9]": {"conditions": "group III, against the background of 90 minutes' hyperglycemia, i.v. 1500 mg/kg, 24 hours after implantation"}, "[10]": {"conditions": "6 animals, 15 days after tumor implantation, average tumor weight 35 g"}}}
{"compound": "N#CC1CN1C(N)=O", "note": "(centres unmarked) [1-carbamoyl-2-cyano-aziridine]", "values": [{"measurement": "LD50", "setting": "[1]", "result": "1 250 mg/kg"}, {"measurement": "cure of rats with carcinosarcoma DS", "setting": "[2]", "result": 47.4, "unit": "%"}]}
{"compound": "NC(=O)C1CN1", "note": "(centres unmarked) [2-carbamoylaziridine]", "values": [{"measurement": "therapeutic index", "setting": "[3]", "result": "considerably higher"}, {"measurement": "Complete disappearance of the tumor (animals)", "setting": "[4]", "result": 6}, {"measurement": "No effect (animals)", "setting": "[4]", "result": 2}, {"measurement": "Partial disappearance of the tumor (animals)", "setting": "[4]", "result": 2}]}
{"compound": "NNC(=O)C1CN1", "note": "(centres unmarked) [active principle where R is NHNH2]", "values": [{"measurement": "Complete disappearance of the tumor (animals)", "setting": "[5]", "result": 3}, {"measurement": "No effect (animals)", "setting": "[5]", "result": 4}, {"measurement": "Partial disappearance of the tumor (animals)", "setting": "[5]", "result": 3}, {"measurement": "Complete disappearance of the tumor (animals)", "setting": "[6]; [8]", "result": 8}, {"measurement": "No effect (animals)", "setting": "[6]; [8]", "result": 2}, {"measurement": "Complete disappearance of the tumor (animals)", "setting": "[6]; [9]", "result": 7}, {"measurement": "No effect (animals)", "setting": "[6]; [9]", "result": 1}, {"measurement": "Partial disappearance of the tumor (animals)", "setting": "[6]; [9]", "result": 2}, {"measurement": "Life time increased by", "setting": "[7]; animals with partial disappearance of the tumor, 15 days after implantation", "result": 50, "unit": "%"}, {"measurement": "Complete disappearance of the tumor (animals)", "setting": "[7]; [10]", "result": 3}, {"measurement": "Partial disappearance of the tumor (animals)", "setting": "[7]; [10]", "result": 3}]}
